Measured values from patent publication US9167822B2, “Antifungal compositions” (DSM IP ASSETS B.V., priority 2012, dated 2015).
Several values for one entry are separate records, joined by “and”; a condition that tells them apart may be missing. Equal values may be shown once.

Experiments:
Penicillium italicum [1] = experiment: In vitro antifungal activity, 96-well microtiter plates; assay type: cell-based; conditions: 25° C.
Method: Subsequently, 100 μl of a Botrytis cinerea suspension prepared in PCB medium was used to inoculated each well with 2.5×10^3 spores/ml.
After incubation of the microtiter plates at 25° C., the in vitro antifungal activity (%) of the individual active ingredients was assessed by calculating the reduction in mould growth observed in the presence of the active ingredient in comparison to the mould growth observed in the absence of the active ingredient. The expected antifungal activity (E in %) of the active ingredient combination was calculated according to the Colby equation (Colby, 1967): E=X+Y−[(X·Y)/100] wherein X and Y are the observed antifungal activities (in %) of the individual active ingredients X and Y, respectively. If the observed antifungal activity (O in %) of the combination exceeds the expected antifungal activity (E in %) of the combination and the resulting synergy factor O/E is thus >1.0, the combined application of the active ingredients leads to a synergistic antifungal effect.
Furthermore, Penicillium italicum was used for inoculation.

Botrytis cinerea [2] = experiment: Treatment of strawberries: wounded, dipped in antifungal composition, then inoculated with Botrytis cinerea; assay type: in vivo; conditions: 1000 ppm bixafen or both
Method: (§1) Ten fresh, organic strawberries were used per treatment. Each strawberry was wounded with a 0.5 mm long cut and each wound was inoculated with 10 μl of a Botrytis cinerea suspension containing 1×10^5 of spores/ml. […] The pH of the compositions was 4. A composition without natamycin or bixafen was used as control. The treated strawberries were incubated in a closed box in the dark at 20° C.
(§2) During incubation, mould growth on the strawberries was assessed in a twofold manner: (i) the number of moulded strawberries per total of 10 strawberries was counted; and (ii) the antifungal activity (in %) of the individual and combined active ingredients was determined by calculating the reduction in mould growth observed on the strawberries treated with the antifungal composition in comparison to the mould growth on the strawberries treated with the control composition. The expected antifungal activity (E in %) of the combined antifungal composition comprising both active ingredients was calculated according to the Colby equation (Colby, 1967): E=X+Y−[(X·Y)/100] wherein X and Y are the observed antifungal activities (in %) of the individual active ingredients X and Y, respectively. If the observed antifungal activity (O in %) of the combination exceeds the expected antifungal activity (E in %) of the combination and the synergy factor O/E is thus >1.0, the combined application of the active ingredients leads to a synergistic antifungal effect.
After treatment, each strawberry was inoculated with 10 μl of a Botrytis cinerea suspension containing 1×10^5 of spores/ml. The treated strawberries were assessed on mould growth according to the two methods described in Example 3.

Penicillium italicum [3] = experiment: Treatment of mandarins wounded and inoculated with Penicillium italicum, then dipped; assay type: in vivo
Method: (§3) Ten fresh, organic mandarins were used per treatment. The peel of each mandarin was wounded once using a cork borer according to the method described by de Lapeyre de Bellaire and Dubois (1987). Subsequently, each wound was inoculated with 10 μl of a Penicillium italicum suspension containing 1×10^5 of spores/ml. […] The pH of the compositions was 4.
The treated mandarins were incubated in a closed box in the dark at 20° C. and assessed on mould growth during incubation.

Botrytis cinerea [4] = experiment: Treatment of strawberries: wounded, inoculated with Botrytis cinerea, then dipped in antifungal composition; assay type: in vivo
Method: as §1, §2
The treated strawberries were assessed on mould growth. The antifungal activity (in %) of the individual and combined active ingredients was determined according to the method described in Example 3. […]

Penicillium italicum [5] = experiment: Treatment of apples wounded and inoculated with Penicillium italicum, then dipped; assay type: in vivo; conditions: for Number of moulded apples/total number of 10 apples: 500 ppm natamycin; for Number of moulded apples per total of 10 apples: 250 ppm natamycin
Method: as §3, with “apples” for “mandarins”, “Each apple” for “The peel of each mandarin”, “1×10^6” for “1×10^5”, “4. A composition without natamycin or bixafen was used as control. The treated apples were incubated in a closed box in the dark at 20° C. […]” for “4.”
During incubation, the treated apples were assessed on mould growth according to the two methods described in Example 3. […]

[6] = day 4, 250 ppm natamycin, 250 ppm bixafen or both
[7] = day 4, 250 ppm natamycin, 500 ppm bixafen or both
[8] = day 4, 500 ppm natamycin, 2000 ppm bixafen or both
[9] = day 6, 250 ppm natamycin, 250 ppm bixafen or both
[10] = day 6, 250 ppm natamycin, 500 ppm bixafen or both
[11] = day 6, 500 ppm natamycin, 1000 ppm bixafen or both
[12] = day 6, 500 ppm natamycin, 2000 ppm bixafen or both
[13] = day 7, 250 ppm natamycin, 250 ppm bixafen or both
[14] = day 7, 250 ppm natamycin, 500 ppm bixafen or both
[15] = day 9, 250 ppm natamycin, 500 ppm bixafen or both
[16] = day 11, 500 ppm natamycin, 2000 ppm bixafen or both
[17] = day 14, 500 ppm natamycin, 1000 ppm bixafen or both
[18] = day 14, 500 ppm natamycin, 2000 ppm bixafen or both
[19] = day 3, 500 ppm natamycin, 2000 ppm bixafen or both
[20] = day 9, 500 ppm natamycin, 2000 ppm bixafen or both

C[C@@H]1C/C=C/C=C/C=C/C=C/[C@H](O[C@@H]2O[C@H](C)[C@@H](O)[C@H](N)[C@@H]2O)C[C@@H]2O[C@](O)(C[C@@H](O)C[C@H]3O[C@@H]3/C=C/C(=O)O1)C[C@H](O)[C@H]2C(=O)O [Natamycin, natamycin]
Observed antifungal activity O (%) (Penicillium italicum [1]; day 10, 0.63 ppm natamycin, 25 ppm isopyrazam or both): 0%
Observed antifungal activity O (%) (Penicillium italicum [1]; day 10, 1.25 ppm natamycin, 25 ppm bixafen or both): 0%
Observed antifungal activity O (%) (Botrytis cinerea [2]; day 3, 500 ppm natamycin): 59%
Number of moulded wounds/total number of 10 wounds (Botrytis cinerea [2]; day 5, 20° C., 250 ppm natamycin): 10 and 10/10
Observed antifungal activity O (%) (Botrytis cinerea [2]; day 5, 500 ppm natamycin): 19%
Observed antifungal activity O (%) (Botrytis cinerea [2]; day 6, 500 ppm natamycin): 12%
Observed antifungal activity O (%) (Penicillium italicum [3]; day 3, 250 ppm natamycin, 250 ppm bixafen or both): 70%
Observed antifungal activity O (%) (Penicillium italicum [3]; [6]): 43%
Observed antifungal activity O (%) (Penicillium italicum [3]; [7]): 43%
Observed antifungal activity O (%) (Penicillium italicum [3]; day 4, 500 ppm natamycin, 1000 ppm bixafen or both): 63%
Observed antifungal activity O (%) (Penicillium italicum [3]; [8]): 63%
Observed antifungal activity O (%) (Penicillium italicum [3]; [9]): 18%
Observed antifungal activity O (%) (Penicillium italicum [3]; [10]): 18%
Observed antifungal activity O (%) (Penicillium italicum [3]; [11]): 28%
Observed antifungal activity O (%) (Penicillium italicum [3]; [12]): 28%
Observed antifungal activity O (%) (Penicillium italicum [3]; [13]): 10%
Observed antifungal activity O (%) (Penicillium italicum [3]; [14]): 10%
Observed antifungal activity O (%) (Penicillium italicum [3]; day 7, 500 ppm natamycin, 1000 ppm bixafen or both): 16%
Observed antifungal activity O (%) (Penicillium italicum [3]; day 9, 250 ppm natamycin, 250 ppm bixafen or both): 8%
Observed antifungal activity O (%) (Penicillium italicum [3]; [15]): 8%
Observed antifungal activity O (%) (Penicillium italicum [3]; day 11, 250 ppm natamycin, 500 ppm bixafen or both): 13%
Observed antifungal activity O (%) (Penicillium italicum [3]; [16]): 13%
Observed antifungal activity O (%) (Penicillium italicum [3]; day 13, 250 ppm natamycin, 500 ppm bixafen or both): 12%
Observed antifungal activity O (%) (Penicillium italicum [3]; [17]): 9%
Observed antifungal activity O (%) (Penicillium italicum [3]; [18]): 9%
Observed antifungal activity O (%) (Penicillium italicum [3]; day 15, 250 ppm natamycin, 500 ppm bixafen or both): 6%
Observed antifungal activity O (%) (Penicillium italicum [3]; day 15, 500 ppm natamycin, 1000 ppm bixafen or both): 5%
Observed antifungal activity O (%) (Penicillium italicum [3]; day 15, 500 ppm natamycin, 2000 ppm bixafen or both): 5%
Number of moulded strawberries/total number of 10 strawberries (Botrytis cinerea [4]; Day 3, 20° C., 250 ppm natamycin, 250 ppm bixafen or both): 8 and 8/10
Number of moulded strawberries/total number of 10 strawberries (Botrytis cinerea [4]; Day 3, 20° C., 500 ppm natamycin, 2000 ppm bixafen or both): 10 and 10/10
Number of moulded strawberries/total number of 10 strawberries (Botrytis cinerea [4]; Day 4, 20° C., 250 ppm natamycin, 250 ppm bixafen or both): 10 and 10/10
Number of moulded strawberries/total number of 10 strawberries (Botrytis cinerea [4]; Day 4, 20° C., 500 ppm natamycin, 2000 ppm bixafen or both): 10 and 10/10
Number of moulded strawberries/total number of 10 strawberries (Botrytis cinerea [4]; Day 5, 20° C., 250 ppm natamycin, 250 ppm bixafen or both): 10 and 10/10
Number of moulded strawberries/total number of 10 strawberries (Botrytis cinerea [4]; Day 5-6, 20° C., 500 ppm natamycin, 2000 ppm bixafen or both): 10 and 10/10
Observed antifungal activity O (%) (Botrytis cinerea [4]; [19]): 21%
Observed antifungal activity O (%) (Botrytis cinerea [4]; [6]): 6%
Observed antifungal activity O (%) (Botrytis cinerea [4]; [7]): 6%
Observed antifungal activity O (%) (Botrytis cinerea [4]; [8]): 16%
Observed antifungal activity O (%) (Botrytis cinerea [4]; day 5, 250 ppm natamycin, 250 ppm bixafen or both): 2%
Observed antifungal activity O (%) (Botrytis cinerea [4]; day 5, 500 ppm natamycin, 2000 ppm bixafen or both): 3%
Observed antifungal activity O (%) (Botrytis cinerea [4]; [9]): 0%
Observed antifungal activity O (%) (Botrytis cinerea [4]; [10]): 0%
Observed antifungal activity O (%) (Botrytis cinerea [4]; [12]): 0%
Observed antifungal activity O (%) (Botrytis cinerea [4]; [13]): 0%
Observed antifungal activity O (%) (Botrytis cinerea [4]; [14]): 0%
Observed antifungal activity O (%) (Botrytis cinerea [4]; day 7, 500 ppm natamycin, 2000 ppm bixafen or both): 0%
Observed antifungal activity O (%) (Botrytis cinerea [4]; [15]): 0%
Observed antifungal activity O (%) (Botrytis cinerea [4]; [20]): 0%
Observed antifungal activity O (%) (Botrytis cinerea [4]; day 10, 250 ppm natamycin, 500 ppm bixafen or both): 0%
Number of moulded apples/total number of 10 apples (Penicillium italicum [5]; Day 3, 20° C., 1000 ppm bixafen or both): 9 and 9/10
Number of moulded apples/total number of 10 apples (Penicillium italicum [5]; Day 3-4, 20° C., 2000 ppm bixafen or both): 9 and 9/10
Number of moulded apples/total number of 10 apples (Penicillium italicum [5]; Day 4, 20° C., 1000 ppm bixafen or both): 9 and 9/10
Number of moulded apples per total of 10 apples (Penicillium italicum [5]; Day 6, 20° C., 500 ppm bixafen or both): 10 and 10/10
Number of moulded apples/total number of 10 apples (Penicillium italicum [5]; Day 6, 20° C., 1000 ppm bixafen or both): 10 and 10/10
Number of moulded apples/total number of 10 apples (Penicillium italicum [5]; Day 6, 20° C., 2000 ppm bixafen or both): 10 and 10/10
Number of moulded apples per total of 10 apples (Penicillium italicum [5]; Day 6-9, 20° C., 250 ppm bixafen or both): all and 10/10
Number of moulded apples per total of 10 apples (Penicillium italicum [5]; Day 7, 20° C., 500 ppm bixafen or both): 10 and 10/10
Number of moulded apples/total number of 10 apples (Penicillium italicum [5]; Day 7, 20° C., 1000 ppm bixafen or both): 10 and 10/10
Number of moulded apples/total number of 10 apples (Penicillium italicum [5]; Day 7, 20° C., 2000 ppm bixafen or both): 10 and 10/10
Number of moulded apples per total of 10 apples (Penicillium italicum [5]; Day 9, 20° C., 500 ppm bixafen or both): 10 and 10/10
Number of moulded apples/total number of 10 apples (Penicillium italicum [5]; Day 9-14, 20° C., 1000 ppm bixafen or both): all and 10/10
Number of moulded apples/total number of 10 apples (Penicillium italicum [5]; Day 9-14, 20° C., 2000 ppm bixafen or both): all and 10/10
Number of moulded apples per total of 10 apples (Penicillium italicum [5]; Day 11-15, 20° C., 250 ppm bixafen or both): all and 10/10
Observed antifungal activity O (%) (Penicillium italicum [5]; day 3, 500 ppm natamycin, 1000 ppm bixafen or both): 33%
Observed antifungal activity O (%) (Penicillium italicum [5]; [19]): 33%
Observed antifungal activity O (%) (Penicillium italicum [5]; day 6, 250 ppm natamycin, 250 ppm bixafen or both (bixafen 500 ppm)): 38%
Observed antifungal activity O (%) (Penicillium italicum [5]; [10]): 38%
Observed antifungal activity O (%) (Penicillium italicum [5]; [11]): 6%
Observed antifungal activity O (%) (Penicillium italicum [5]; [12]): 6%
Observed antifungal activity O (%) (Penicillium italicum [5]; [14]): 42%
Observed antifungal activity O (%) (Penicillium italicum [5]; day 9, 250 ppm natamycin, 250 ppm bixafen or both (bixafen 500 ppm)): 35%
Observed antifungal activity O (%) (Penicillium italicum [5]; [15]): 35%
Observed antifungal activity O (%) (Penicillium italicum [5]; day 9, 500 ppm natamycin, 1000 ppm bixafen or both): 21%
Observed antifungal activity O (%) (Penicillium italicum [5]; [20]): 21%
Observed antifungal activity O (%) (Penicillium italicum [5]; day 11, 250 ppm natamycin, 250 ppm bixafen or both (bixafen 500 ppm)): 42%
Observed antifungal activity O (%) (Penicillium italicum [5]; day 11, 500 ppm natamycin, 1000 ppm bixafen or both): 26%
Observed antifungal activity O (%) (Penicillium italicum [5]; [16]): 26%
Observed antifungal activity O (%) (Penicillium italicum [5]; day 14, 250 ppm natamycin, 250 ppm bixafen or both (bixafen 500 ppm)): 49%
Observed antifungal activity O (%) (Penicillium italicum [5]; [17]): 30%
Observed antifungal activity O (%) (Penicillium italicum [5]; [18]): 30%
